Test system: E. coli strain W3110
Assay: Synergy assays: Biolog chemical sensitivity panels with Group IB metal, coefficient of drug interaction (CDI) from relative growth
Type: cell-based
Conditions: for CDI (coefficient of drug interaction), copper mixed with biocide: Copper (mM) section; for CDI (coefficient of drug interaction), gold + biocide: Gold (μM)

CCn1cc(C(=O)O)c(=O)c2ccc(C)nc21 [Nalidixic Acid]
Tox: CDI (coefficient of drug interaction), copper mixed with biocide (1st of 3 copper concentrations (value not shown), 3rd of four biocide concentrations) | CDI (coefficient of drug interaction), copper mixed with biocide (1st of 3 copper concentrations (value not shown), 4th of four biocide concentrations) | CDI (coefficient of drug interaction), copper mixed with biocide (2nd of 3 copper concentrations (value not shown), 3rd of four biocide concentrations) | CDI (coefficient of drug interaction), copper mixed with biocide (2nd of 3 copper concentrations (value not shown), 4th of four biocide concentrations) | CDI (coefficient of drug interaction), copper mixed with biocide (3rd of 3 copper concentrations (value not shown), 3rd of four biocide concentrations) | CDI (coefficient of drug interaction), copper mixed with biocide (3rd of 3 copper concentrations (value not shown), 4th of four biocide concentrations) | CDI (coefficient of drug interaction) (Gold section of Table 5, first of three gold concentrations (μM, value not given), biocide concentration 3 of 4) | CDI (coefficient of drug interaction) (Gold section of Table 5, first of three gold concentrations (μM, value not given), biocide concentration 4 of 4) | CDI (coefficient of drug interaction) (Gold section of Table 5, second of three gold concentrations (μM, value not given), biocide concentration 3 of 4) | CDI (coefficient of drug interaction) (Gold section of Table 5, second of three gold concentrations (μM, value not given), biocide concentration 4 of 4) | CDI (coefficient of drug interaction) (Gold section of Table 5, third of three gold concentrations (μM, value not given), biocide concentration 3 of 4) | CDI (coefficient of drug interaction) (Gold section of Table 5, third of three gold concentrations (μM, value not given), biocide concentration 4 of 4) | CDI (coefficient of drug interaction), silver + biocide (Silver 0.5 μM, 3rd of four biocide concentrations, E. coli) | CDI (coefficient of drug interaction), silver + biocide (Silver 0.5 μM, 4th of four biocide concentrations, E. coli) | CDI (coefficient of drug interaction), silver + biocide (Silver 1.0 μM, 3rd of four biocide concentrations, E. coli) | CDI (coefficient of drug interaction), silver + biocide (Silver 1.0 μM, 4th of four biocide concentrations, E. coli) | CDI (coefficient of drug interaction), silver + biocide (Silver 5.0 μM, 3rd of four biocide concentrations, E. coli) | CDI (coefficient of drug interaction), silver + biocide (Silver 5.0 μM, 4th of four biocide concentrations, E. coli)

CC1=C(C(=O)Nc2ccccc2)S(=O)(=O)CCO1 [Oxycarboxin]
Tox: CDI (coefficient of drug interaction) (Copper (mM), 1st of 3 copper concentrations (head line not shown), biocide concentration 3 of 4, E. coli) | CDI (coefficient of drug interaction) (Copper (mM), 1st of 3 copper concentrations (head line not shown), biocide concentration 4 of 4, E. coli) | CDI (coefficient of drug interaction) (Copper (mM), 2nd of 3 copper concentrations (head line not shown), biocide concentration 3 of 4, E. coli) | CDI (coefficient of drug interaction) (Copper (mM), 2nd of 3 copper concentrations (head line not shown), biocide concentration 4 of 4, E. coli) | CDI (coefficient of drug interaction) (Copper (mM), 3rd of 3 copper concentrations (head line not shown), biocide concentration 3 of 4, E. coli) | CDI (coefficient of drug interaction) (Copper (mM), 3rd of 3 copper concentrations (head line not shown), biocide concentration 4 of 4, E. coli) | CDI (coefficient of drug interaction), gold + biocide (first of 3 gold concentrations, biocide concentration 2 of 4) | CDI (coefficient of drug interaction), gold + biocide (first of 3 gold concentrations, biocide concentration 3 of 4) | CDI (coefficient of drug interaction), gold + biocide (first of 3 gold concentrations, biocide concentration 4 of 4) | CDI (coefficient of drug interaction), gold + biocide (second of 3 gold concentrations, biocide concentration 2 of 4) | CDI (coefficient of drug interaction), gold + biocide (second of 3 gold concentrations, biocide concentration 3 of 4) | CDI (coefficient of drug interaction), gold + biocide (second of 3 gold concentrations, biocide concentration 4 of 4) | CDI (coefficient of drug interaction), gold + biocide (third of 3 gold concentrations, biocide concentration 2 of 4) | CDI (coefficient of drug interaction), gold + biocide (third of 3 gold concentrations, biocide concentration 3 of 4) | CDI (coefficient of drug interaction), gold + biocide (third of 3 gold concentrations, biocide concentration 4 of 4) | CDI (Silver 0.5 μM, biocide concentration 2 of 4) | CDI (Silver 0.5 μM, biocide concentration 3 of 4) | CDI (Silver 0.5 μM, biocide concentration 4 of 4) | CDI (Silver 1.0 μM, biocide concentration 2 of 4) | CDI (Silver 1.0 μM, biocide concentration 3 of 4) | CDI (Silver 1.0 μM, biocide concentration 4 of 4) | CDI (Silver 5.0 μM, biocide concentration 2 of 4) | CDI (Silver 5.0 μM, biocide concentration 3 of 4) | CDI (Silver 5.0 μM, biocide concentration 4 of 4)
